Experiments:
NCI-H23 [1] = test: Growth inhibition of human NCI-H23 cells assessed as cell growth at 5X10'-9 M after 48 hrs by sulforhodamine B assay; format: functional; details: NCI-H23, 48 h, read-out: Activity
ACHN [2] = test: Growth inhibition of human ACHN cells assessed as cell growth at 5X10'-6 M after 48 hrs by sulforhodamine B assay; format: functional; details: read-out: Activity
IGROV-1 = test: Growth inhibition of human IGROV1 cells assessed as cell growth at 5X10'-7 M after 48 hrs by sulforhodamine B assay; format: functional; details: IGROV-1, 48 h, read-out: Activity
CCRF-CEM [3] = test: Growth inhibition of human CCRF-CEM cells assessed as cell growth at 5X10'-6 M after 48 hrs by sulforhodamine B assay; format: functional; details: read-out: Activity
NCI-H23 [4] = test: Growth inhibition of human NCI-H23 cells assessed as cell growth at 5X10'-5 M after 48 hrs by sulforhodamine B assay; format: functional; details: NCI-H23, 48 h, read-out: Activity
M14 [5] = test: Growth inhibition of human M14 cells assessed as cell growth at 10 uM after 48 hrs by sulforhodamine B assay; format: functional; details: M14, 48 h, read-out: Activity
RXF 393 [6] = test: Growth inhibition of human RXF393 cells assessed as cell growth at 5X10'-8 M after 48 hrs by sulforhodamine B assay; format: functional; details: RXF 393, 48 h, read-out: Activity
[7] = Growth inhibition of human Hs 578T cells assessed as cell growth at 5X10'-9 M after 48 hrs by sulforhodamine B assay; format: functional; details: read-out: Activity
SNB-19 [8] = test: Growth inhibition of human SNB19 cells after 48 hrs by sulforhodamine B assay; format: functional; details: SNB-19, 48 h
NCI-H460 = test: Growth inhibition of human NCI-H460 cells assessed as cell growth at 10 uM after 48 hrs by sulforhodamine B assay; format: functional; details: NCI-H460, 48 h, read-out: Activity
MDA-MB-231 = test: Growth inhibition of human MDA-MB-231 cells assessed as cell growth at 5X10'-7 M after 48 hrs by sulforhodamine B assay; format: functional; details: MDA-MB-231, 48 h, read-out: Activity
RXF 393 [9] = test: Growth inhibition of human RXF393 cells assessed as cell growth at 5X10'-9 M after 48 hrs by sulforhodamine B assay; format: functional; details: RXF 393, 48 h, read-out: Activity
HCT-116 [10] = test: Growth inhibition of human HCT116 cells after 48 hrs by sulforhodamine B assay; format: functional; details: HCT-116, 48 h
SNB-19 [11] = test: Growth inhibition of human SNB19 cells assessed as cell growth at 5X10'-5 M after 48 hrs by sulforhodamine B assay; format: functional; details: SNB-19, 48 h, read-out: Activity
CCRF-CEM [12] = test: Growth inhibition of human CCRF-CEM cells assessed as cell growth at 5X10'-9 M after 48 hrs by sulforhodamine B assay; format: functional; details: read-out: Activity
SF-268 [13] = test: Growth inhibition of human SF268 cells assessed as cell growth at 10 uM after 48 hrs by sulforhodamine B assay; format: functional; details: SF-268, 48 h, read-out: Activity
M14 [14] = test: Growth inhibition of human M14 cells assessed as cell growth at 5X10'-7 M after 48 hrs by sulforhodamine B assay; format: functional; details: M14, 48 h, read-out: Activity
Malme-3M = test: Growth inhibition of human MALME-3M cells assessed as cell growth at 5X10'-5 M after 48 hrs by sulforhodamine B assay; format: functional; details: read-out: Activity
OVCAR-4 [15] = test: Growth inhibition of human OVCAR4 cells after 48 hrs by sulforhodamine B assay; format: functional; details: OVCAR-4, 48 h
LOX IMVI = test: Growth inhibition of human LOXIMVI cells after 48 hrs by sulforhodamine B assay; format: functional
SF-268 [16] = test: Growth inhibition of human SF268 cells assessed as cell growth at 5X10'-7 M after 48 hrs by sulforhodamine B assay; format: functional; details: SF-268, 48 h, read-out: Activity
SN12C = test: Growth inhibition of human SN12C cells assessed as cell growth at 10 uM after 48 hrs by sulforhodamine B assay; format: functional; details: read-out: Activity
A498 = test: Growth inhibition of human A498 cells assessed as cell growth at 5X10'-5 M after 48 hrs by sulforhodamine B assay; format: functional; details: A498, 48 h, read-out: Activity
OVCAR-4 [17] = test: Growth inhibition of human OVCAR4 cells assessed as cell growth at 5X10'-9 M after 48 hrs by sulforhodamine B assay; format: functional; details: OVCAR-4, 48 h, read-out: Activity
ACHN [18] = test: Growth inhibition of human ACHN cells assessed as cell growth at 5X10'-8 M after 48 hrs by sulforhodamine B assay; format: functional; details: read-out: Activity
DU-145 = test: Growth inhibition of human DU145 cells assessed as cell growth at 5X10'-7 M after 48 hrs by sulforhodamine B assay; format: functional; details: DU-145, 48 h, read-out: Activity
K562 [19] = test: Growth inhibition of human K562 cells assessed as cell growth at 5X10'-7 M after 48 hrs by sulforhodamine B assay; format: functional; details: K562, 48 h, read-out: Activity
NCI-H226 = test: Growth inhibition of human NCI-H226 cells assessed as cell growth at 5X10'-6 M after 48 hrs by sulforhodamine B assay; format: functional; details: NCI-H226, 48 h, read-out: Activity
MDA-MB-468 [20] = test: Growth inhibition of human MDA-MB-468 cells assessed as cell growth at 5X10'-8 M after 48 hrs by sulforhodamine B assay; format: functional; details: MDA-MB-468, 48 h, read-out: Activity
HCT-116 [21] = test: Growth inhibition of human HCT116 cells assessed as cell growth at 5X10'-9 M after 48 hrs by sulforhodamine B assay; format: functional; details: HCT-116, 48 h, read-out: Activity
U-251 = test: Growth inhibition of human U251 cells assessed as cell growth at 5X10'-6 M after 48 hrs by sulforhodamine B assay; format: functional; details: U-251, 48 h, read-out: Activity
PC-3 = test: Growth inhibition of human PC3 cells after 48 hrs by sulforhodamine B assay; format: functional, cell-based; details: PC-3, 48 h
NCI-H322M = test: Growth inhibition of human NCI-H322M cells after 48 hrs by sulforhodamine B assay; format: functional
MDA-MB-468 [22] = test: Growth inhibition of human MDA-MB-468 cells after 48 hrs by sulforhodamine B assay; format: functional, cell-based; details: MDA-MB-468, 48 h
UO-31 = test: Growth inhibition of human UO31 cells after 48 hrs by sulforhodamine B assay; format: functional; details: UO-31, 48 h
K562 [23] = test: Growth inhibition of human K562 cells assessed as cell growth at 5X10'-6 M after 48 hrs by sulforhodamine B assay; format: functional; details: K562, 48 h, read-out: Activity
[24] = read-out: LC50 (the source's name)

COc1cc(-c2nn(-c3cccc(NC(=O)c4cccc(C(F)(F)F)c4)c3)cc2-c2ccncc2)ccc1Cl
growth at 0.005 µM (NCI-H23 [1]): 91%
growth at 5 µM (ACHN [2]): 27%
growth at 0.5 µM (IGROV-1): 86%
growth at 5 µM (CCRF-CEM [3]): 6%
growth at 50 µM (NCI-H23 [4]): -3%
growth at 10 µM (M14 [5]): 12.3%
growth at 0.05 µM (RXF 393 [6]): 99%
growth at 0.005 µM [7]: 91%
GI50 (SNB-19 [8]): 2.46 µM
LC50 (concentration killing 50% of cells) (SNB-19 [8]): > 50 µM
TGI (SNB-19 [8]): > 50 µM
growth at 10 µM (NCI-H460): 4.83%
growth at 0.5 µM (MDA-MB-231): 77%
growth at 0.005 µM (RXF 393 [9]): 99%
GI50 (HCT-116 [10]): 1.67 µM
TGI (HCT-116 [10]): > 50 µM
CC50 (HCT-116 [10]; [24]): > 50 µM
growth at 50 µM (SNB-19 [11]): 28%
growth at 0.005 µM (CCRF-CEM [12]): 100%
growth at 10 µM (SF-268 [13]): 30.5%
growth at 0.5 µM (M14 [14]): 91%
growth at 50 µM (Malme-3M): 29%
GI50 (OVCAR-4 [15]): 2.28 µM
LC50 (concentration killing 50% of cells) (OVCAR-4 [15]): > 50 µM
TGI (OVCAR-4 [15]): > 50 µM
GI50 (LOX IMVI): 1.39 µM
LC50 (LOX IMVI): > 50 µM
TGI (LOX IMVI): > 50 µM
growth at 0.5 µM (SF-268 [16]): 88%
growth at 10 µM (SN12C): 34.4%
growth at 50 µM (A498): -28%
growth at 0.005 µM (OVCAR-4 [17]): 94%
growth at 0.05 µM (ACHN [18]): 103%
growth at 0.5 µM (DU-145): 92%
growth at 0.5 µM (K562 [19]): 83%
growth at 5 µM (NCI-H226): 18%
growth at 0.05 µM (MDA-MB-468 [20]): 90%
growth at 0.005 µM (HCT-116 [21]): 99%
growth at 5 µM (U-251): 14%
GI50 (PC-3): 1.23 µM
IC50 (PC-3): 1.23 µM
TGI (PC-3): > 50 µM
CC50 (PC-3; [24]): > 50 µM
GI50 (NCI-H322M): 10.8 µM
TGI (NCI-H322M): > 50 µM
CC50 (NCI-H322M; [24]): > 50 µM
GI50 (MDA-MB-468 [22]): 1.32 µM
IC50 (MDA-MB-468 [22]): 1.32 µM
TGI (MDA-MB-468 [22]): 4.56 µM
CC50 (MDA-MB-468 [22]; [24]): > 50 µM
GI50 (UO-31): 0.968 µM
TGI (UO-31): > 50 µM
CC50 (UO-31; [24]): > 50 µM
growth at 5 µM (K562 [23]): 9%
